Holding throughout (assay type): in vivo
Holding throughout (design): key: 5=81-100%; 4=61-80%; 3=41-60%; 2=21-40%; 1=1-20%; 0=no damage to the plant; -=not tested

For test [1], the system named is Echinochloa crus-galli (ECHCG). The test is described as follows: Post-emergence test, herbicidal damage. Particulars: sprayed after 8 days cultivation, 1000 g/ha unless otherwise stated, evaluated after 13 days, five-point scale. The method, boiled down:
(§1)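 Treatment with 1000 g/ha compound (acetone/water 50:50, 0.5% Tween 20), followed by 13 days' glasshouse growth at 24/16 °C and 65% humidity with twice-daily watering. Visual percentage damage was converted to 0–5 ratings in 20% bands.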

Test [2] has as its system Amaranthus palmeri (AMAPA). The experiment in a line: Post-emergence test, herbicidal damage. The following applies: sprayed after 8 days cultivation, 1000 g/ha unless otherwise stated, evaluated after 13 days, five-point scale. The method, boiled down:
as §1

Test [3] concerns Ipomoea hederacea (IPOHE). The test is described as follows: Post-emergence test, herbicidal damage. The following applies: sprayed after 8 days cultivation, 1000 g/ha unless otherwise stated, evaluated after 13 days, five-point scale. In a few lines:
as §1

Test [4] relates to Zea mays (ZEAMX). The test is described as follows: Post-emergence test, herbicidal damage. Particulars: sprayed after 8 days cultivation, 1000 g/ha unless otherwise stated, evaluated after 13 days, five-point scale. The method, boiled down:
as §1

Test [5] concerns Setaria faberi (SETFA). The test is described as follows: Post-emergence test, herbicidal damage. Particulars: sprayed after 8 days cultivation, 1000 g/ha unless otherwise stated, evaluated after 13 days, five-point scale. The method, boiled down: as §1
In test [6] the test system is Amaranthus retoflexus (AMARE). The experiment in a line: Post-emergence test, herbicidal damage. Particulars: sprayed after 8 days cultivation, 1000 g/ha unless otherwise stated, evaluated after 13 days, five-point scale. In a few lines:
as §1

The subject of test [7] is Setaria faberi (SETFA). The experiment in a line: Pre-emergence test, herbicidal damage. Particulars: 1000 g/ha unless otherwise stated, evaluated after 13 days, five-point scale.
The test system of test [8] is Zea mays (ZEAMX). The experiment in a line: Pre-emergence test, herbicidal damage. The following applies: 1000 g/ha unless otherwise stated, evaluated after 13 days, five-point scale.
Test [9] concerns Amaranthus palmeri (AMAPA). The test is described as follows: Pre-emergence test, herbicidal damage. The following applies: 1000 g/ha unless otherwise stated, evaluated after 13 days, five-point scale.
Test [10] has as its system Ipomoea hederacea (IPOHE). The experiment in a line: Pre-emergence test, herbicidal damage. The following applies: 1000 g/ha unless otherwise stated, evaluated after 13 days, five-point scale.
Test [11] deals with Echinochloa crus-galli (ECHCG). The test is described as follows: Pre-emergence test, herbicidal damage. Particulars: 1000 g/ha unless otherwise stated, evaluated after 13 days, five-point scale.
For test [12], the system named is Amaranthus retoflexus (AMARE). The experiment in a line: Pre-emergence test, herbicidal damage. Particulars: 1000 g/ha unless otherwise stated, evaluated after 13 days, five-point scale.

Molecules are shown by their SMILES.

As to `COCc1c(-c2ccc(Cl)c(Cl)c2)c(C(=O)O)c(=O)n(-c2ccc(F)cc2F)c1C` [Compound 36, 4-(3,4-dichlorophenyl)-1-(2,4-difluorophenyl)-5-(methoxymethyl)-6-methyl-2-oxo-pyridine-3-carboxylic acid], the entries for the “percentage damage caused to the plant, ECHCG” value in test [1] and in test [11] were 0 and 1 (1=1-20%), respectively. Besides, the “percentage damage caused to the plant, AMAPA” value in test [2] and in [9] was 2 (2=21-40%) each time. For the same molecule, the “percentage damage caused to the plant, IPOHE” value in test [3] and in test [10] was 1 (1=1-20%) each time. The “percentage damage caused to the plant, ZEAMX” value in the test with Zea mays (ZEAMX) [4] and in the test on Zea mays (ZEAMX) [8] was 0 throughout. Also, the results for the “percentage damage caused to the plant, SEFTA” value with Setaria faberi (SETFA) [5] and in the test on Setaria faberi (SETFA) [7] were 1 (1=1-20%) and 0, respectively. Moreover, the “percentage damage caused to the plant, AMARE” value in [6] and in test [12] was 2 (2=21-40%) throughout.
Take `Cc1cc(-c2ccc(Cl)c(Cl)c2)c(C(=O)O)c(=O)n1Cc1ccc(F)cc1F` [Compound 31, 4-(3,4-dichlorophenyl)-1-[(2,4-difluorophenyl)methyl]-6-methyl-2-oxo-pyridine-3-carboxylic acid]: the “percentage damage caused to the plant, ECHCG” value in [1] is recorded as 1 (1=1-20%); in test [11] it was 0. In addition, the “percentage damage caused to the plant, AMAPA” value in [2] and in test [9] was 1 (1=1-20%) each time. The “percentage damage caused to the plant, IPOHE” value in test [3] and in test [10] was 0 in each case. Besides, the “percentage damage caused to the plant, ZEAMX” value with Zea mays (ZEAMX) [4] and with Zea mays (ZEAMX) [8] was 0 throughout. For the same molecule, the “percentage damage caused to the plant, SEFTA” value was 0 with Setaria faberi (SETFA) [5] and 1 (1=1-20%) in the test with Setaria faberi (SETFA) [7]. The “percentage damage caused to the plant, AMARE” value in test [6] and in [12] was 1 (1=1-20%) throughout.
On to `Cc1cc(-c2ccc(Cl)c(Cl)c2)c(C(=O)O)c(=O)n1Cc1ccc(Cl)cc1F` [Compound 22, 1-[(4-chloro-2-fluoro-phenyl)methyl]-4-(3,4-dichlorophenyl)-6-methyl-2-oxo-pyridine-3-carboxylic acid], for which the “percentage damage caused to the plant, ECHCG” value in test [1] is recorded as 0; in test [11] it was 1 (1=1-20%). Further, the “percentage damage caused to the plant, AMAPA” value is given as 3 (3=41-60%) in test [2] and 1 (1=1-20%) in [9]. The “percentage damage caused to the plant, IPOHE” value in test [3] is 1 (1=1-20%); in test [10], 0. Besides, the “percentage damage caused to the plant, ZEAMX” value in the test on Zea mays (ZEAMX) [4] and with Zea mays (ZEAMX) [8] was 1 (1=1-20%) in each case. The “percentage damage caused to the plant, SEFTA” value in the test with Setaria faberi (SETFA) [5] and in the test on Setaria faberi (SETFA) [7] was 1 (1=1-20%) throughout. The “percentage damage caused to the plant, AMARE” value in [6] is listed as 3 (3=41-60%); in test [12], 1 (1=1-20%).
As to `Cc1[nH]c(=O)c(C(=O)O)c(-c2ccc(Cl)c(Cl)c2)c1C` [Compound 9, 4-(3,4-dichlorophenyl)-5,6-dimethyl-2-oxo-1H-pyridine-3-carboxylic acid], the “percentage damage caused to the plant, ECHCG” value in test [1] and in test [11] was 0 throughout. For the same molecule, the “percentage damage caused to the plant, AMAPA” value in test [2] is 1 (1=1-20%); in [9] it was 0. Also, the “percentage damage caused to the plant, IPOHE” value is reported as 1 (1=1-20%) in [3] and 0 in [10]. For the same molecule, the “percentage damage caused to the plant, ZEAMX” value with Zea mays (ZEAMX) [4] and with Zea mays (ZEAMX) [8] was 0 each time. Also, the “percentage damage caused to the plant, SEFTA” value in the test with Setaria faberi (SETFA) [5] and with Setaria faberi (SETFA) [7] was 0 each time. For the same molecule, the figures for the “percentage damage caused to the plant, AMARE” value in test [6] and in [12] were 1 (1=1-20%) and 0, respectively.
Take `Cc1c(-c2ccc(Cl)c(Cl)c2)c(C(=O)O)c(=O)n(C)c1C` [Compound 12, 4-(3,4-dichlorophenyl)-1,5,6-trimethyl-2-oxo-pyridine-3-carboxylic acid]: the “percentage damage caused to the plant, ECHCG” value in test [1] and in test [11] was 1 (1=1-20%) each time. Also, the results for the “percentage damage caused to the plant, AMAPA” value in test [2] and in [9] were 2 (2=21-40%) and 1 (1=1-20%), respectively. The “percentage damage caused to the plant, IPOHE” value in test [3] is given as 1 (1=1-20%); in [10] it was 0. In addition, the “percentage damage caused to the plant, ZEAMX” value with Zea mays (ZEAMX) [4] and in the test with Zea mays (ZEAMX) [8] was 0 in each case. The results for the “percentage damage caused to the plant, SEFTA” value with Setaria faberi (SETFA) [5] and in the test on Setaria faberi (SETFA) [7] were 1 (1=1-20%) and 2 (2=21-40%), respectively. Also, the entries for the “percentage damage caused to the plant, AMARE” value in test [6] and in test [12] were 1 (1=1-20%) and 0, respectively.
`C=Cc1c(-c2ccc(Cl)c(Cl)c2)c(C(=O)O)c(=O)n(-c2ccc(F)cc2F)c1C` [Compound 38, 4-(3,4-dichlorophenyl)-1-(2,4-difluorophenyl)-6-methyl-2-oxo-5-vinyl-pyridine-3-carboxylic acid]: the “percentage damage caused to the plant, ECHCG” value is listed as 0 in [1] and 2 (2=21-40%) in [11]. Further, the “percentage damage caused to the plant, AMAPA” value in test [2] and in test [9] was 1 (1=1-20%) in each case. Also, the entries for the “percentage damage caused to the plant, IPOHE” value in [3] and in test [10] were 2 (2=21-40%) and 0, respectively. The “percentage damage caused to the plant, ZEAMX” value in the test on Zea mays (ZEAMX) [4] and with Zea mays (ZEAMX) [8] was 0 throughout. Moreover, the “percentage damage caused to the plant, SEFTA” value with Setaria faberi (SETFA) [5] and in the test on Setaria faberi (SETFA) [7] was 0 in each case. Moreover, the “percentage damage caused to the plant, AMARE” value in test [6] and in test [12] was 1 (1=1-20%) in each case.
Take `Cc1cc(-c2ccc(Cl)c(Cl)c2)c(C(=O)O)c(=O)n1-c1ncc(Cl)cc1F` [Compound 18, 1-(5-chloro-3-fluoro-2-pyridyl)-4-(3,4-dichlorophenyl)-6-methyl-2-oxo-pyridine-3-carboxylic acid]: the “percentage damage caused to the plant, ECHCG” value in test [1] was 1 (1=1-20%); in test [11], 0. Moreover, the “percentage damage caused to the plant, AMAPA” value in test [2] is on record as 1 (1=1-20%); in [9], 0. Moreover, the “percentage damage caused to the plant, IPOHE” value in test [3] is recorded as 1 (1=1-20%); in test [10], 0. Besides, the “percentage damage caused to the plant, ZEAMX” value with Zea mays (ZEAMX) [4] is 1 (1=1-20%); in the test with Zea mays (ZEAMX) [8], 0. For the same molecule, the “percentage damage caused to the plant, SEFTA” value in the test with Setaria faberi (SETFA) [5] and in the test on Setaria faberi (SETFA) [7] was 0 throughout. In addition, the “percentage damage caused to the plant, AMARE” value in test [6] and in test [12] was 0 in each case.
On to `Cc1c(Cl)c(-c2ccc(Cl)c(Cl)c2)c(C(=O)O)c(=O)n1-c1ccc(F)cc1` [Compound 20, 5-chloro-4-(3,4-dichlorophenyl)-1-(4-fluorophenyl)-6-methyl-2-oxo-pyridine-3-carboxylic acid], for which the “percentage damage caused to the plant, ECHCG” value is 2 (2=21-40%) in test [1] and 1 (1=1-20%) in test [11]. Besides, the “percentage damage caused to the plant, AMAPA” value in test [2] and in [9] was 5 (5=81-100%) each time. Also, the “percentage damage caused to the plant, IPOHE” value in test [3] is recorded as 2 (2=21-40%); in test [10], 1 (1=1-20%). Also, the “percentage damage caused to the plant, ZEAMX” value in the test on Zea mays (ZEAMX) [4] was 4 (4=61-80%); with Zea mays (ZEAMX) [8], 0. For the same molecule, the “percentage damage caused to the plant, SEFTA” value in the test with Setaria faberi (SETFA) [5] is 4 (4=61-80%); in the test with Setaria faberi (SETFA) [7], 2 (2=21-40%). The “percentage damage caused to the plant, AMARE” value in test [6] and in [12] was 4 (4=61-80%) each time.

Source of the values: patent US20250289787A1, “HERBICIDAL 2-OXO-NICOTINIC ACID DERIVATIVES” (SYNGENTA CROP PROTECTION AG, priority 2022, published 2025).
